Experimental data taken from publication PMC12728192, “The dynamic lateral gate of the mitochondrial β-barrel biogenesis machinery is blocked by darobactin A” (Nature Communications, 2025).

Biological target: T1, T. thermophilus SAM complex (TtSAM; Sam50:Sam35:Sam37) (Thermothelomyces thermophilus, UniProt G2QFF9)
T1 construct: gene MYCTH_2094326; codon-optimized, co-expressed in S. cerevisiae W303.1B; Strep-Tactin purified monomeric 1:1:1 complex in LMNG/GDN or GDN; 10xHis or TwinStrep tags with linkers and TEV sites in some constructs; with Sorting and assembly machinery subunit Sam35; Sorting and assembly machinery subunit Sam37
Experiment: cryo-EM structure; LC/MS of purified complex
Type: binding
Details: co-purified from yeast membranes; modelled on back side of Sam50 barrel and beneath Sam37 cytosolic domain

T1 sequence (G2QFF9 entry or part of it): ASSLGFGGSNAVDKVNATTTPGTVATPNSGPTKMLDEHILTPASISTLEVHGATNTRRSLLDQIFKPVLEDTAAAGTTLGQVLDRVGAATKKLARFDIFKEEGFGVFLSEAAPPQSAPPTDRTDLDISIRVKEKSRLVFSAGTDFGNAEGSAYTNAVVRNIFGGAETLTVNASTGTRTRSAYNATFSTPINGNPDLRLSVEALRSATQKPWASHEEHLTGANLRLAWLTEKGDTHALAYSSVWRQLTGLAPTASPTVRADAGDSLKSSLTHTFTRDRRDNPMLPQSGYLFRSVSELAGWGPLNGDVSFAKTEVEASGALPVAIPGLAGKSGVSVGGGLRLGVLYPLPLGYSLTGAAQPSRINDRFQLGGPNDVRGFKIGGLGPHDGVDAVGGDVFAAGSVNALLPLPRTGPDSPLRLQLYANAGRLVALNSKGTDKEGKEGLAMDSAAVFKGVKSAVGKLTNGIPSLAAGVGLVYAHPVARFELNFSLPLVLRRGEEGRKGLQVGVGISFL
T1 sequence (G2Q6R7 entry or part of it, further chain): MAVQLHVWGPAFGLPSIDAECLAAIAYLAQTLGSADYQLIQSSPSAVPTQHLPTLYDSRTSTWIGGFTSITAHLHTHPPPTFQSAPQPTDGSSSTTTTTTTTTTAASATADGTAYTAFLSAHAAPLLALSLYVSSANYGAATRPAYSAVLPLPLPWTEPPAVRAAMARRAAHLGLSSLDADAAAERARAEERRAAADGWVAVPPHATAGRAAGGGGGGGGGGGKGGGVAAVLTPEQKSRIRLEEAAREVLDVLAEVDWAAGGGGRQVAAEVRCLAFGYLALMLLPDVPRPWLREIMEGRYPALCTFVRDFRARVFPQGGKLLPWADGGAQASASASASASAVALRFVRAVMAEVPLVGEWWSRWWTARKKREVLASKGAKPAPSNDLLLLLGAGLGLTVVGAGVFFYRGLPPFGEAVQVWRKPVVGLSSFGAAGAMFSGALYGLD
T1 sequence (G2QAT9 entry or part of it, further chain): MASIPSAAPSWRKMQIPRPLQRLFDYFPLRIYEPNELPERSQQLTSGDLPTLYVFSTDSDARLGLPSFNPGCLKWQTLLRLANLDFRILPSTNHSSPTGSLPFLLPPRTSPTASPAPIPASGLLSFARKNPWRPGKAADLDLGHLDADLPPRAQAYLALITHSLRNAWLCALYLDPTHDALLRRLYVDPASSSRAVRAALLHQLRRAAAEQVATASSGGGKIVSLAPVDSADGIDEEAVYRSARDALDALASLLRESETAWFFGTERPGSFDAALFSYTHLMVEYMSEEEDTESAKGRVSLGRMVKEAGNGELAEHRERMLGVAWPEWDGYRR

Compound: CC(C)[C@@H](C)/C=C/[C@@H](C)[C@H]1CC[C@H]2C3=CC=C4C[C@@H](O)CC[C@]4(C)[C@H]3CC[C@]12C [ergosterol]
- cryo-EM structure; LC/MS of purified complex: We have modeled these lipids as ergosterol molecules
